Assay results taken from patent US12077503B2, “Substituted cyclic amides and their use as herbicides” (FMC CORPORATION, priority 2015, dated 2024).

Assays:
Format in all cases: in vivo
[1] = system: barnyardgrass (Echinochloa crus-galli); assay: Test C flooded paddy test; conditions: Flood; for Plant response rating (scale of 0 to 100), Barnyardgrass: 0 is no effect, 100 is complete control
Summary of the method: (§1)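 Scores express visual response relative to untreated controls, 0 meaning no effect and 100 complete control, assessed 13 to 15 d after treatment in the greenhouse. Compound went into water flooded 3 cm above soil around 2-leaf plants.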

[2] = system: ducksalad (Heteranthera limosa); assay: Test C flooded paddy test; conditions: Flood; for Plant response rating (scale of 0 to 100), Ducksalad: 0 is no effect, 100 is complete control
Summary of the method: as §1

rice (Oryza sativa) = assay: Test C flooded paddy test; conditions: Flood; for Plant response rating (scale of 0 to 100), Rice: 0 is no effect, 100 is complete control
Summary of the method: as §1

[3] = system: sedge, umbrella (small-flower umbrella sedge, Cyperus difformis); assay: Test C flooded paddy test; conditions: Flood; for Plant response rating (scale of 0 to 100), Sedge, Umbrella: 0 is no effect, 100 is complete control
Summary of the method: as §1

[4] = system: Monochoria (Monochoria vaginalis); assay: Test F flooded paddy test; design: key: 0 = no effect, 100 = complete control; conditions: Flood
[5] = system: redstem (purple redstem, Ammannia coccinea); assay: Test F flooded paddy test; conditions: Flood
Source text: (§2) Plant species in the flooded paddy test consisted of one stand of 9 or 10 water seeded rice seedlings (Rice, W. S. Jap, Oryza sativa cv. ‘Japonica—M202’ or Rice, W. S. Ind, ‘Indica’), and two stands of 3 or 4 transplanted rice seedlings (Oryza sativa cv. ‘Japonica—M202’), Monochoria (Monochoria vaginalis), sedge, umbrella (small-flower umbrella sedge, Cyperus difformis), hardstem bulrush (Scirpus juncoides), redstem (purple redstem, Ammannia coccinea), rice flatsedge (Cyperus iria), bearded sprangletop (Leptochloa fascicularis), barnyardgrass (Echinochloa crus-galli), waterplantain (common waterplantain, Alisma plantago-aquatica), and late watergrass (Echinochloa oryzicola) grown to the 2 to 2.5 leaf stage for testing. Potted plants were grown in a greenhouse with day/night temperature settings of 30/27° C., and supplemental balanced lighting was provided to maintain a 16-hour photoperiod. At time of treatment, test pots were flooded to 3 cm above the soil surface, treated by application of test compounds directly to the paddy water, and then maintained at that water depth for the duration of the test. Effects of treatments on rice and weeds were visually evaluated by comparison to untreated controls after 21 d. Plant response ratings, summarized in Table F, are based on a scale of 0 to 100 where 0 is no effect and 100 is complete control. A dash (-) response means no test result.

[6] = system: waterplantain (common waterplantain, Alisma plantago-aquatica); assay: Test F flooded paddy test; conditions: Flood
Source text: as §2

[7] = 31 g ai/ha, scale 0 to 100 (0 no effect, 100 complete control), 13 to 15 d

Compound: CN1C[C@H](c2ccc(F)c(F)c2)[C@@H](C(=O)Nc2cccc(F)c2F)C1=O [Compound 639, (3S,4S)—N-(2,3-difluorophenyl)-4-(3,4-difluorophenyl)-1-methyl-2-oxo-3-pyrrolidinecarboxamide]
- Plant response rating, Barnyardgrass [1, 7]: 0
- Plant response rating (scale of 0 to 100), Barnyardgrass ([1]; 62 g ai/ha): 50
- Plant response rating (scale of 0 to 100), Barnyardgrass ([1]; 125 g ai/ha): 70
- Plant response rating (scale of 0 to 100), Barnyardgrass ([1]; 250 g ai/ha): 75
- Plant response rating, Ducksalad [2, 7]: 50
- Plant response rating (scale of 0 to 100), Ducksalad ([2]; 62 g ai/ha): 75
- Plant response rating (scale of 0 to 100), Ducksalad ([2]; 125 g ai/ha): 90
- Plant response rating (scale of 0 to 100), Ducksalad ([2]; 250 g ai/ha): 100
- Plant response rating, Rice (rice (Oryza sativa); [7]): 0
- Plant response rating (scale of 0 to 100), Rice (rice (Oryza sativa); 62 g ai/ha): 0
- Plant response rating (scale of 0 to 100), Rice (rice (Oryza sativa); 125 g ai/ha): 20
- Plant response rating (scale of 0 to 100), Rice (rice (Oryza sativa); 250 g ai/ha): 20
- Plant response rating, Sedge, Umbrella [3, 7]: 0
- Plant response rating (scale of 0 to 100), Sedge, Umbrella ([3]; 62 g ai/ha): 0
- Plant response rating (scale of 0 to 100), Sedge, Umbrella ([3]; 125 g ai/ha): 0
- Plant response rating (scale of 0 to 100), Sedge, Umbrella ([3]; 250 g ai/ha): 0
- Plant response rating: Monochoria ([4]; 32 g ai/ha): 65
- Plant response rating: Monochoria ([4]; 64 g ai/ha): 98
- Plant response rating: Monochoria ([4]; 125 g ai/ha): 100
- Plant response rating: Monochoria ([4]; 250 g ai/ha): 100
- Plant response rating: Redstem ([5]; 32 g ai/ha): 0
- Plant response rating: Redstem ([5]; 64 g ai/ha): 0
- Plant response rating: Redstem ([5]; 125 g ai/ha): 0
- Plant response rating: Redstem ([5]; 250 g ai/ha): 30
- Plant response rating: Waterplantain ([6]; 32 g ai/ha): 80
- Plant response rating: Waterplantain ([6]; 64 g ai/ha): 80
- Plant response rating: Waterplantain ([6]; 125 g ai/ha): 98
- Plant response rating: Waterplantain ([6]; 250 g ai/ha): 100
